From patent US10273208B2, “Screening methods for the binding affinity of chemical entities to biological molecules and NEDD4-1 inhibitors identified by the screening methods” (Northwestern University, priority 2014, dated 2019)
“Also recorded” adds a separate entry of the source. Values belong to the compound of their own block, whether it stands above or below them.

Tests used:
[1] = target: T1, NEDD4-1 HECT domain (Homo sapiens, UniProt P46934); experiment: Covalent labeling of NEDD4-1 HECT domain (gel filtration, whole protein ESI-MS); type: binding
T1 construct: to elute NEDD4-1 HECT domain (50 mM HEPES, 150 mM NaCl, 0.1 mM EDTA 1 mM DTT); GST (N, cleaved yes); made in house; host or cells: E. coli BL21
T1 sequence (P46934 with tags, fused parts or gaps): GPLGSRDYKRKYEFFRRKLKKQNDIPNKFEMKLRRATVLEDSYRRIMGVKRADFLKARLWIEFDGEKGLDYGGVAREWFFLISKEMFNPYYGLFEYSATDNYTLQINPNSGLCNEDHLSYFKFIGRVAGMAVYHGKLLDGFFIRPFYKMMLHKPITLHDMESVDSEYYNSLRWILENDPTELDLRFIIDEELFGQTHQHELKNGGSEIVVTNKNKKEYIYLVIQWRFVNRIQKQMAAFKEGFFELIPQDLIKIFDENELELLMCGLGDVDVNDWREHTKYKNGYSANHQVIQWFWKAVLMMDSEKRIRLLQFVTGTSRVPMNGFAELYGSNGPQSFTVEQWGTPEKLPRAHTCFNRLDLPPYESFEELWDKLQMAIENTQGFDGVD
Description: 10 μM of NEDD4-1 HECT domain in 50 mM HEPES 150 mM NaCl 0.1 mM EDTA 1 mM DTT pH 7.5 was treated with a mixture of ten fragments (from 10 mM each DMSO stock solution mixtures; final concentrations: 100 μM of each fragment, and 1% DMSO). Fragment structures and mixture compositions were the same as reported previously. The reaction mixture was incubated for 4 h at 23° C. before being passed through Zeba gel filtration columns (Thermo, 7K MWCO) to remove unreacted fragments. The protein solution was then immediately analyzed by whole protein LC/ESI-MS.
Accurate-mass data were obtained on an Agilent 6210A LC-TOF mass spectrometer in positive ion mode using electrospray ionization. Samples were chromatographed on the LC-TOF instrument using a Poroshell 120 EC-C18 HPLC column (2.1*50 mm, 2.7 micron), an Agilent Series 1200 HPLC binary pump, and an Agilent Series 1200 autoinjector. The HPLC column was held at 45° C. and the autosampler was held at 8° C. Mobile Phase A was a solution of 0.1% formic acid in water:acetonitrile (19:1). Mobile Phase B was a solution of 0.1% formic acid in acetonitrile. The flow rate was set to 250 μL/min. The gradient used was 0% B for 2 minutes, ramping linearly to 90% B from 2 minutes to 5 minutes, holding at 90% B from 5 minutes to 7 minutes, and then returning to 0% B at 7.1 minutes. The column was allowed to equilibrate for 2.7 minutes before the next injection was initiated. The eluent from the column was diverted to waste for the first 2 minutes. The spectra were acquired from 301 to 3200 daltons using a gas temperature of 340° C., a gas flow of 7 liters/min, and the nebulizer gas at 35 psi. The following voltages were used: capillary 4200 V, fragmentor 230V, skimmer 64V, and octapole RF peak 250V. Spectra were acquired at a rate of 1 spectra/sec. The data was processed using MassHunter software version B.02.00. Maximum entropy deconvolutions were performed with a Mass Step of 1, S/N Threshold of 30, Average Mass at 90% of Peak Height, and 5 Charge States Minimum.
10 μM of NEDD4-1 HECT domain in 50 mM HEPES 150 mM NaCl 0.1 mM EDTA 1 mM DTT pH 7.5 was treated with 1 mM of inhibitor 1 or 2 (from 100 mM DMSO stock solution; final concentrations: 1 mM of inhibitor, 1% DMSO, and 0.2% CHAPS to solubilize the inhibitors at 1 mM). The reaction mixture was incubated for 4 h at 23° C. before being passed through Zeba gel filtration columns (Thermo, 7K MWCO) to remove unreacted inhibitor. The protein solution was then immediately used for crystallization or enzymatic assay.

[2] = target: T1, NEDD4-1 HECT domain; experiment: In vitro ubiquitination assays; type: biochemical; settings: NEDD4-1 HECT pretreated with 1 mM compound for 3 h, quenched after 5 min
Description: FIG. 15A, FIG. 15B and FIG. 15C. (FIG. 15A) Enzymatic assay with compounds 1, 2, and 4. NEDD4-1 HECT domain was pretreated with 1% DMSO (lane 1), or 1 mM of compounds 1 (lane 2), 2 (lane 3), or 4 (lane 4) for 3 h before beginning the assay. The reaction mixtures were quenched after 5 min, and polyubiquitin chains were detected by Western blot with anti-ubiquitin antibody. (FIG. 15B) Cartoon depiction of the crystal structure of NEDD4-1:1 with key side chains and the inhibitor shown as spheres. (FIG. 15C) Close-up view of the inhibitor-binding site with the key side chains depicted as sticks and colored by atom type. The 2FO-FC electron density map (mesh, contoured at 1.0 σ) is presented for Cys^627 and 1.
FIG. 16A, FIG. 16B, FIG. 16C and FIG. 16D. (FIG. 16A) and (FIG. 16B) Compound 6 disrupts the NEDD4-1:Ub interaction as shown by a fluorescence polarization assay. Mean±s.e.m., n=3. (FIG. 16C) Compound 6 inhibits the ability of NEDD4-1 to polyubiquitinate the Wbp2-C-K222 protein substrate. NEDD4-1 was pretreated with 1% DMSO (lane 1), or 100 μM of compound 6 (lane 2) or compound 4 (lane 3) for 1.5 h before beginning the assay. Reaction mixtures were quenched at the indicated times and the amount of ubiquitinated Wbp2-C-K222 was determined using in-gel fluorescence. (FIG. 16D) Quantification of polyubiquitin chains in FIG. 16B. Mean±s.e.m., n=2. […]

[3] = target: T2, NEDD4-1 HECT:ubiquitin-fluorescein interaction (Homo sapiens, UniProt P46934); experiment: Fluorescence polarization assay of NEDD4-1:Ub binding; settings: NEDD4-1 HECT 7.98 μM, ubiquitin-fluorescein 50 nM, 1 h
T2 construct: to elute NEDD4-1 HECT domain (50 mM HEPES, 150 mM NaCl, 0.1 mM EDTA 1 mM DTT); GST (N, cleaved yes); made in house; host or cells: E. coli BL21
T2 sequence (P46934 with tags, fused parts or gaps): T1 sequence (P46934 with tags, fused parts or gaps)
Description: NEDD4-1 HECT (7.98 μM) and ubiquitin-fluorescein (50 nM, Lifesensors) in 50 mM HEPES pH 7.5 150 mM NaCl 0.1 mM EDTA were treated with DMSO or varying concentrations of inhibitor in 1% DMSO in black 96 well plates. Changes in fluorescence polarization were monitored over 1 h with a Biotek Synergy 4 plate reader. Slopes of ln(polarization) vs. time were plotted with GraphPad Prism and used to determine the pseudo-first order rate contstant kobs for a given concentration of inhibitor. The values of kinact/KI for each inhibitor were then determined by fitting the kobs vs. [inhibitor] plot to the equation kobs=kinact*[inhibitor]/([inhibitor]+KI). All reactions were performed in triplicate and plotted as mean±s.e.m.

[4] = target: T3, NEDD4-1 (~120 kDa band) in TC71 Ewing's sarcoma cells (Homo sapiens, UniProt P46934); experiment: Cell-based selectivity studies with alkyne probe 15, click reaction, in-gel fluorescence; settings: pretreatment 1 h, then 2 μM probe 15
T3 sequence (P46934 1-900 isoform P46934-4): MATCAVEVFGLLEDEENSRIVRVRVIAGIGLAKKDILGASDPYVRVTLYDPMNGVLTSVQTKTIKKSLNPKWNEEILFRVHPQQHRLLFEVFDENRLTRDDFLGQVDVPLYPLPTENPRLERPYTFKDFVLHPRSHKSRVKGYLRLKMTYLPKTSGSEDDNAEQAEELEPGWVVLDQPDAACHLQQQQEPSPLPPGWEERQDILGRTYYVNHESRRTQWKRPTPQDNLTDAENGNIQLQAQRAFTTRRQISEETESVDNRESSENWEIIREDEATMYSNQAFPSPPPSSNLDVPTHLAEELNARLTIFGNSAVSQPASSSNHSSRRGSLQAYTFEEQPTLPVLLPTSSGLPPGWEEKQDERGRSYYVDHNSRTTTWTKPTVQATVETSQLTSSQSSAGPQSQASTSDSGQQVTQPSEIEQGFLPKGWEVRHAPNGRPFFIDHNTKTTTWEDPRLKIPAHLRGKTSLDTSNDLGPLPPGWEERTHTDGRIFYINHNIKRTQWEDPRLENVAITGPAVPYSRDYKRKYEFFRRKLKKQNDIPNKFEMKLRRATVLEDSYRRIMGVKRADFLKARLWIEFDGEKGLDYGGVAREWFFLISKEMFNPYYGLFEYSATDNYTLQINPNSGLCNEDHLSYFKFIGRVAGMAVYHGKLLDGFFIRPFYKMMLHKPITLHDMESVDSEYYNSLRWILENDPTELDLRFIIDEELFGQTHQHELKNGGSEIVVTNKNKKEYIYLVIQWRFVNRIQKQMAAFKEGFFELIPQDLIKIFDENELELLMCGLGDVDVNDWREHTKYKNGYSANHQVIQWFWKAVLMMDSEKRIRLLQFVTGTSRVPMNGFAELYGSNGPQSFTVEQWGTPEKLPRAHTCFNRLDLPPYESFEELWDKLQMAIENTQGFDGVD
Description: We treated TC71 Ewing's sarcoma cells (NEDD4-1 positive),^[6b] with 2 μM of compound 15, followed by lysis, click reaction with rhodamine azide, and in-gel fluorescence.^[15]
TC71 cells were cultured in Iscove's Modified Dulbecco's Medium (IMDM), 20% (v/v) FBS, 4 mM glutamine, and lx ITS (5 μg/mL insulin, 5 μg/mL transferrin, 5 ng/mL selenous acid). Cells were grown to confluence in 6-well plates (9.6 cm^2 per well). The growth medium was aspirated off and replaced with 2 mL serum-free IMDM containing 0.1% DMSO or the indicated concentration of inhibitor in 0.1% DMSO. After 1 h incubation time at 37° C., cells were treated with 0.1% DMSO or 2 μM of probe 15 in 0.1% DMSO for an additional hour. […] Proteins were then resolved by SDS-PAGE 7.5% or 15% acrylamide gels, and subjected to in-gel scanning fluorescence imaging on the Typhoon 9400 at 610 nm excitation. The gel was then stained with Coomassie Brilliant Blue to visualize all proteins. Western blots were performed with anti-NEDD4-1 antibody from Cell Signaling (2740S).

- labeling of NEDD4-1 ([1]; compound 100 μM, NEDD4-1 10 μM, 4 h): ~40%
- labeling of NEDD4-1 HECT domain (qualitative) ([1]; compound 100 μM, NEDD4-1 HECT 10 μM, 4 h): monolabel
- labeling of NEDD4-1 in the presence of ubiquitin ([1]; compound 100 μM, NEDD4-1 HECT 10 μM, ubiquitin 60 μM, 4 h): completely inhibited
- covalent modification of NEDD4-1 HECT domain in the mixture screen ([1]; ten mixtures of ten fragments, 100 μM each, 4 h): weak covalent modifiers
SMILES: COC(=O)/C=C/CNC(=O)c1c(C)n(C)c2ccc(OC)cc12 [Compound 1, Methyl(E)-4-(5-methoxy-1,2-dimethyl-1H-indole-3-carboxamido)but-2-enoate]
- modification of NEDD4-1 HECT domain at 1 mM ([1]; compound 1 mM, 3-4 h): complete modification; also recorded: fully labels NEDD4-1 HECT domain after 3 h, with minor non-specific dilabeling
- polyubiquitin chain assembly by NEDD4-1 (anti-ubiquitin Western blot) [2]: defective at assembling polyubiquitin chains; also recorded: inhibition of polyubiquitization

SMILES: COC(=O)/C=C/CNC(=O)c1c(C)n(C2CCCC2)c2ccc(OC)cc12 [Compound 6]
- kinact [3]: 5.8e-05 s⁻¹
- KI (inactivation constant) ([3]; read-out: K1 (disruption of NEDD4-1:Ub binding)): 29.3 µM

- effect of pretreatment on probe 15 labeling of the ~120 kDa band (NEDD4-1) [4]: inactive
SMILES: COC(=O)/C=C/CNC(=O)c1c(C)n(C)c2ccccc12 [Compound 11, Methyl(E)-4-(1,2-dimethyl-1H-indole-3-carboxamido)but-2-enoate]
